# From US3989837A, “Pharmaceutical compositions” (Chinoin Gyogyszer-es Vegyeszeti Termekek Gyara RT, priority 1972, dated 1976)
# Where “and” joins values, the source holds several entries; their conditions need not be identical. Equal values may be shown once.
# Columns and labels:
# writhing = experiment: Analgesic effect, acetic acid writhing (Table 3); assay type: in vivo, mouse; settings: male mice
# Protocol: Male mice weighing 15-18 g. and starved for 16 hours were used for the experiments. The drug was given orally, the control mice obtained a drug-free suspension. After 2 and 4 hours (2^h and 4^h respectively) the animals were injected with […], acetic acid solution (0.1 ml. per mouse) intraperitoneally. Upon the effect of the injection the animals reacted in a few minutes with writhing. […] Comparison of the number of writhes in the control and the treated animals served as a basis of evaluation of drug effect. Significance was calculated by Student's t test, and efficiency of the drug was expressed as per cent. Each experiment was performed on a group of 12-16 animals.
# rats = experiment: Testing of ulcerogenic effect in rats (Table 5); assay type: in vivo, rat; settings: 5 days
# Protocol: Unstarved rats weighing 160-180 g. were used for the experiment. The animals were divided into groups of 20. The compounds were administered as 1% suspensions stabilized with methylcellulose, by the oral route, at a volume of 0.2 ml./100 g. Treatment was continued for 5 days (1 treatment/day), and was suspended on the 6th and 7th day. On the 8th experimental day the […] were killed by ether overdosage. After laparatomy the stomachs were removed, washed twice in water and thereafter dipped in formaline. An incision was made along the large curvature, then again rinced with water and spread on a PVC plate. The gastric mucosa is evaluated macroscopically by two methods:
# 1. The ulcer index was calculated. The animals were divided into groups on the ground of the diameter of the largest ulcer and the extent of the changes was scored as follows:
# The number of animals in the individual groups was multiplied by the number of scores and the proucts of multiplications are added and the sum thus obtained is divided by the number of animals.
# 2. Ulcer counts were calculated. The number of ulcers was counted on each stomach and the total number of ulcers was divided by the number of animals. […] Changes found in the intestinates were evaluated as "all or naught" and expressed in per cent of the number of animals.
# mice = experiment: Toxicity on mice by oral administration, once daily for 7 days (Table 4); assay type: in vivo; settings: male mice
# Protocol: The experiments were performed on unstarved male mice of […]. body-weight.
# The compound was administered in the form of 1% suspension stabilized with methylcellulose. […] The animals obtained the drug once daily over a period of 7 dyas, i.e. 168 hours. The number of deaths was registered each day. LD50 values were calculated according to Litchfield and Wilcoxon.
# kaolin oedema = experiment: Kaolin oedema test (Table 1); assay type: in vivo, rat; design: oedema, treated: unit not given here; settings: female rats
# Protocol: The experiments were performed on female rats weighing 110-130 g. divided into groups of 10 animals. The rats were starved for 24 hours prior to the experiment. The test substance was administered orally, the controls obtained the suspending solution without the active ingredient. 1 hour following drug administration the animals were injected s.c. 0.1 ml. of a suspension of 5% kaolin into the foot pad. During the following period the inflammatory reaction is manifested by a swelling of the foot. The diameter of the foot of the treated and control animals was measured 2, 3.5 and 5 hours after s.c. injection of kaolin. The efficiency of the test compound was calculated from the difference of the diameter of the foot in the treated and control animals. Significance was calculated with Student's t test and the effect of the drug was expressed also as per cent.
# granuloma formation = experiment: Cotton pellet granuloma (Table 2); assay type: in vivo, rat; settings: male rats, 7 days
# Protocol: The experiments were performed on male rats weighing 140-160 g. In ether anaesthesia a […]. cotton pellet was placed in each of two subcutaneous pockets in the dorsal region of the animal. The drug was administered orally during a period of 7 days. The controls received a drugfree suspension. The doses seen in the Table were administered in two portions, in the morning and in the afternoon, respectively. On the 8th day the animals were killed and the pellets were dissected. After removal of fat and extraneous tissue, the pellets were dried for 5 hours at 50° C and weighed. The weight of the cotton pellet before implantation was subtracted from the weight of the dried, dissected pellet and drug efficiency was calculated from the obtained difference. Significance was calculated with Student's t test and drug effect was expressed as per cent.
# [1] = oral 13.7 mg./kg., 2 h after kaolin
# [2] = oral 13.7 mg./kg., 3.5 h after kaolin
# [3] = oral 13.7 mg./kg., 5 h after kaolin
# [4] = oral 34 mg./kg., 2 h after kaolin
# [5] = oral 34 mg./kg., 3.5 h after kaolin
# [6] = oral 34 mg./kg., 5 h after kaolin
# [7] = oral 51 mg./kg., 2 h after kaolin
# [8] = oral 51 mg./kg., 3.5 h after kaolin
# [9] = oral 51 mg./kg., 5 h after kaolin
structure (smiles),measurement,setting,value
"COc1ccc2c(c1)c(CC(=O)OCC(Cl)(Cl)Cl)c(C)n2C(=O)c1ccc(Cl)cc1 [Example 5, 1-(p-chlorobenzoyl)-2-methyl-5-methoxy-indol-3-yl-acetic-acid trichloroethyl ester]",Analgesic effect,"writhing; oral 5 mg./kg., 2 h",29.0% and 20.7%
same,"number of writhes, treated","writhing; oral 5 mg./kg., 2 h",28.0±9.5 and 41.1±12.2
same,Analgesic effect,"writhing; oral 5 mg./kg., 4 h",18.6% and 20.1%
same,"number of writhes, treated","writhing; oral 5 mg./kg., 4 h",32.1±12.4 and 41.4±12.6
same,Analgesic effect,"writhing; oral 17 mg./kg., 2 h",60.8% and 51.4%
same,Analgesic effect,"writhing; oral 17 mg./kg., 4 h",56.7% and 51.0%
same,"number of writhes, treated","writhing; oral 17 mg./kg., 4 h",13.7±10.7 and 20.6±12.3
same,Deaths,rats; oral 27.3 mg./kg.,1/20
same,Number of surviving animals,rats; oral 27.3 mg./kg.,19
same,Per cent of animals exhibiting changes of intest. mucosa,rats; oral 27.3 mg./kg.,10.5 Per cent
same,Ulcer number,rats; oral 27.3 mg./kg.,0
same,Deaths,rats; oral 54.7 mg./kg.,5/20
same,Number of surviving animals,rats; oral 54.7 mg./kg.,15
same,Per cent of animals exhibiting changes of intest. mucosa,rats; oral 54.7 mg./kg.,80 Per cent
same,Ulcer number,rats; oral 54.7 mg./kg.,0.27
same,Number of deaths/number of treated animals,"mice; oral 1000 mg/kg, 24 h",0/10
same,Number of deaths/number of treated animals,"mice; oral 1000 mg/kg, 48 h",0/10
same,Number of deaths/number of treated animals,"mice; oral 1000 mg/kg, 72 h",0/10
same,Number of deaths/number of treated animals,"mice; oral 1000 mg/kg, 96 h",0/10
same,Number of deaths/number of treated animals,"mice; oral 1000 mg/kg, 120 h",0/10
same,Number of deaths/number of treated animals,"mice; oral 1000 mg/kg, 144 h",0/10
same,Number of deaths/number of treated animals,"mice; oral 1000 mg/kg, 168 h",0/10
same,Number of deaths/number of treated animals,"mice; oral 1500 mg/kg, 24 h",0/10
same,Number of deaths/number of treated animals,"mice; oral 1500 mg/kg, 48 h",0/10
same,Number of deaths/number of treated animals,"mice; oral 1500 mg/kg, 72 h",0/10
same,Number of deaths/number of treated animals,"mice; oral 1500 mg/kg, 96 h",0/10
same,Number of deaths/number of treated animals,"mice; oral 1500 mg/kg, 120 h",0/10
same,Number of deaths/number of treated animals,"mice; oral 1500 mg/kg, 144 h",0/10
same,Number of deaths/number of treated animals,"mice; oral 1500 mg/kg, 168 h",0/10
same,Number of deaths/number of treated animals,"mice; oral 2000 mg/kg, 24 h",0/10
same,Number of deaths/number of treated animals,"mice; oral 2000 mg/kg, 48 h",0/10
same,Number of deaths/number of treated animals,"mice; oral 2000 mg/kg, 72 h",2/10
same,Number of deaths/number of treated animals,"mice; oral 2000 mg/kg, 96 h",2/10
same,Number of deaths/number of treated animals,"mice; oral 2000 mg/kg, 120 h",4/10
same,Number of deaths/number of treated animals,"mice; oral 2000 mg/kg, 144 h",6/10
same,Number of deaths/number of treated animals,"mice; oral 2000 mg/kg, 168 h",6/10
same,Number of deaths/number of treated animals,"mice; oral 2500 mg/kg, 24 h",0/10
same,Number of deaths/number of treated animals,"mice; oral 2500 mg/kg, 48 h",1/10
same,Number of deaths/number of treated animals,"mice; oral 2500 mg/kg, 72 h",1/10
same,Number of deaths/number of treated animals,"mice; oral 2500 mg/kg, 96 h",3/10
same,Number of deaths/number of treated animals,"mice; oral 2500 mg/kg, 120 h",4/10
same,Number of deaths/number of treated animals,"mice; oral 2500 mg/kg, 144 h",6/10
same,Number of deaths/number of treated animals,"mice; oral 2500 mg/kg, 168 h",7/10
same,Number of deaths/number of treated animals,"mice; oral 3000 mg/kg, 24 h",0/10
same,Number of deaths/number of treated animals,"mice; oral 3000 mg/kg, 48 h",1/10
same,Number of deaths/number of treated animals,"mice; oral 3000 mg/kg, 72 h",3/10
same,Number of deaths/number of treated animals,"mice; oral 3000 mg/kg, 96 h",4/10
same,Number of deaths/number of treated animals,"mice; oral 3000 mg/kg, 120 h",5/10
same,Number of deaths/number of treated animals,"mice; oral 3000 mg/kg, 144 h",7/10
same,Number of deaths/number of treated animals,"mice; oral 3000 mg/kg, 168 h",7/10
same,Inhibition of kaolin oedema,kaolin oedema; [1],9.8% and 10.6%
same,"oedema, treated",kaolin oedema; [1],2.39±0.36 and 2.28±0.50
same,Inhibition of kaolin oedema,kaolin oedema; [2],15.1% and 19.0%
same,"oedema, treated",kaolin oedema; [2],2.54±0.53 and 2.35±0.54
same,Inhibition of kaolin oedema,kaolin oedema; [3],22.2% and 15.1%
same,"oedema, treated",kaolin oedema; [3],2.56±0.53 and 2.77±0.58
same,Inhibition of kaolin oedema,kaolin oedema; [4],11.0% and 13.6%
same,"oedema, treated",kaolin oedema; [4],2.27±0.30 and 2.46±0.49
same,Inhibition of kaolin oedema,kaolin oedema; [5],22.1%
same,"oedema, treated",kaolin oedema; [5],2.26±0.30 and 2.47±0.41
same,Inhibition of kaolin oedema,kaolin oedema; [6],24.7% and 29.9%
same,"oedema, treated",kaolin oedema; [6],2.48±0.36 and 2.72±0.62
same,Inhibition of kaolin oedema,kaolin oedema; [7],19.5%
same,"oedema, treated",kaolin oedema; [7],1.86±0.32
same,Inhibition of kaolin oedema,kaolin oedema; [8],24.6%
same,"oedema, treated",kaolin oedema; [8],2.05±0.30
same,Inhibition of kaolin oedema,kaolin oedema; [9],26.4%
same,"oedema, treated",kaolin oedema; [9],2.23±0.28
same,Inhibition of granuloma formation,granuloma formation; oral 5.5 mg./kg.,19.5%
same,"granuloma tissue, treated",granuloma formation; oral 5.5 mg./kg.,56.7±11.1
same,Inhibition of granuloma formation,granuloma formation; oral 11 mg./kg.,24.8%
same,"granuloma tissue, treated",granuloma formation; oral 11 mg./kg.,52.0±17.8
